The values below come from ChEMBL document CHEMBL6078654, “Modular Assembly of Heterotrifunctional Molecules Enabled by Iodosulfonylation of Allenes and Subsequent Amination” (J Med Chem, 2024).

Data set [1] can be described thus: Photophysical property of the compound assessed as maximum fluorescent emission peak at 0.03125 to 4 uM by fluorescence spectrophotometric analysis. The format is physicochemical. The note with it: dose 0.03125-4 µM.
The nature of data set [2]: Drug localization in human HCT-116 cells Mitochondria assessed as increase fluorescence at 30 uM incubated for 30 mins by mito-tracker probe based inverted fluorescent microscopic analysis. Conditions: hct-116, 0.5 h. Format: ADME.
For data set [3], the system named is HCT-116. As to the kind of experiment: Cytotoxicity against human HCT-116 cells assessed as cell viability at 320 uM incubated for 24 hrs by CCK-8 assay. Format: toxicity, cell-based. Conditions: hct-116, 24 h.
Data set [4] is described as follows: Drug localization in human HCT-116 cells Endoplasmic reticulum assessed as increase fluorescence at 30 uM incubated for 30 mins by ER-tracker red probe based inverted fluorescent microscopic analysis. Conditions: hct-116, 0.5 h. Format: ADME, subcellular.
A short description of data set [5]: Drug localization in human HCT-116 cells Lysosome assessed as increase fluorescence at 30 uM incubated for 30 mins by lyso-tracker probe based inverted fluorescent microscopic analysis. Format: ADME, subcellular. Conditions: hct-116, 0.5 h.
Data set [6] deals with HCT-116. As to the kind of experiment: Effect on TGR5 protein level in human HCT-116 cells by Western blot analysis. Format: functional, cell-based. In general terms: In western blotting, separated proteins are transferred to a membrane and probed.
Data set [7] deals with MDCK. Put plainly: Effect on TGR5 protein level in dog MDCK cells by Western blot analysis. The format is functional, cell-based. The note with it: Canis lupus familiaris.
Data set [8] relates to HCT-116. As to the kind of experiment: Antiproliferative activity against human HCT-116 cells assessed as inhibition of cell proliferation incubated for 24 hrs by CCK-8 assay. Format: functional, cell-based. Conditions: HCT-116, 24 h. Background: Tetrazolium dyes change colour on reduction, which living cells bring about.
The test system of data set [9] is HepG2. As to the kind of experiment: Antiproliferative activity against human HepG2 cells assessed as inhibition of cell proliferation incubated for 24 hrs by CCK-8 assay. Format: functional, cell-based. The note with it: HepG2, 24 h.
Data set [10] relates to HepG2. As to the kind of experiment: Effect on TGR5 protein level in human HepG2 cells by Western blot analysis. The format is functional, cell-based.
Data set [11] is described as follows: Antiproliferative activity against dog MDCK cells assessed as inhibition of cell proliferation incubated for 24 hrs by CCK-8 assay. Format: toxicity, cell-based, Canis lupus familiaris.
Data set [12] relates to HCT-116. As to the kind of experiment: Cytotoxicity against human HCT-116 cells assessed as cell viability upto 80 uM incubated for 24 hrs by CCK-8 assay. The format is toxicity, cell-based. The note with it: hct-116, 24 h.

Activity calls are given as the source filed them. The rule behind the calls is not given here.

Consider `C=C(C(NCCOC(=O)C(C)c1ccc(CC(C)C)cc1)c1ccc(C(=O)OC)cc1)S(=O)(=O)c1cccc2c(N(C)C)cccc12` (configuration not stated), for which the figures for the Activity result in data set [1] and in [3] were “Active” and “Non-toxic”, respectively. Besides, the Drug uptake entry in [2] is given as “Not_active”; in data set [4] it was “Active”; in data set [5], “Not_active”.

What is called IC50 is the concentration that inhibits the measured activity by half. Take `C=C(C(NCCNC(=O)CC[C@@H](C)[C@H]1CC[C@H]2[C@@H]3CC[C@@H]4C[C@H](O)CC[C@]4(C)[C@H]3CC[C@]12C)c1ccc(C(=O)OCCOCCOCCOC(=O)O[C@H]2c3cc4c(cc3[C@@H](c3cc(OC)c(OC)c(OC)c3)[C@H]3C(=O)OC[C@@H]32)OCO4)cc1)S(=O)(=O)c1cccc2c(N(C)C)cccc12` (some centres not stated): the result in data set [6], in data set [7] and in data set [10] was Active. Further, the values for the IC50 in data set [8] and in data set [9] were 5.5 µM and 2.1 µM, respectively. Further, in data set [11], the 50% inhibitory concentration (IC50) at 24 h worked out at 14.6 µM.

As to `C=C(C(NCCNC(=O)C(C)c1ccc(CC(C)C)cc1)c1ccc(C(=O)OC)cc1)S(=O)(=O)c1cccc2c(N(C)C)cccc12` (configuration not stated), the Activity entry in data set [12] is “Toxic”.
